Measurements from patent US20120149708A1, “MODULATORS OF VIRAL TRANSCRIPTION, AND METHODS AND COMPOSITIONS THEREWITH” (George Mason University, priority 2010, published 2012).
Entries after “also recorded” stand apart in the source; their conditions may differ.

Tests used:
3′TAR and 5′TAR microRNA = assay: Poly-A RT-PCR of TAR microRNA in ACH2 cells; type: cell-based, HIV-1; conditions: CR8#13 100 nm, 48 hrs
Method: RNA was extracted 48 hrs-post drug treatment. 500 ng of RNA from the microRNA-enriched fraction was used to generate cDNA using the Quantimir kit (SBI). RT reactions are performed followed by PCR in which a universal reverse primer is provided by the manufacturer. Specific microRNA forward primers are identical in sequence to the microRNA of interest. PCR products corresponding to the amplified microRNAs were resolved in a 3.5% (w/v) agarose gel. The PCR products are at around 67 bp as compared with the Fermentas 1 kb DNA Plus Ladder. Increased amounts of 3′ and 5′ TAR microRNA were observed post drug treatment.
For poly-A RT-PCR detection of microRNAs, 500 ng of RNA from the microRNA-enriched fraction was used to generate cDNA using the Quantimir kit (SBI) according to the manufacturer's protocol. Briefly, small RNA species are poly-adenylated and then reverse transcription reactions are performed with a company-provided RT primer. For PCR, a universal reverse primer is provided by the manufacturer. Specific microRNA forward primers are identical in sequence to the microRNA of interest. PCR products corresponding to the amplified microRNAs were separated in a 3.5% (w/v) agarose gel and quantified using the Kodak 1D software. […]

TAR microRNA = assay: RNase protection assay for TAR and TAR miRNA in TNF treated ACH2 cells; type: cell-based, HIV-1; conditions: CR8#13 50 nm compared to Flavopiridol 50 nm, 48 hrs
Excerpt: Ten micrograms of total RNA from TNF treated CEM (lane 1) and TNF treated ACH2 cells (lanes 2-6) were hybridized to a radiolabeled TAR 5′ probe and then treated with RNase A. Arrows indicate the probe protected by TAR at 27 nucleotides and the probe protected by a TAR miRNA at approximately 22 nt. Cyc202 concentration at 500 nm, CR8 at 100 nm, CR8#13 at 50 nm, and Flavopiridol at 50 nm were used for these experiments.
Total RNA was extracted from TNF-treated CEM and ACH2 cells follow by drug treatment with Cyc202 (500 nm), CR8 ([…]), CR8#13 (50 nm), and Flavopiridol (50 nm) for 48 hrs using Trizol reagent (Invitrogen). RNase protection assays were performed as previously described (Klase et al, 2007).
RNA polymerase II associated with HIV-1 promoter, however, is phosphorylated on both Ser2 and 5 in the presence of Tat (see Zhou et al, 2004). In order to ascertain whether or not cells treated with CDK inhibitors according to the present invention produce additional TAR derived miRNA, the inevntor utilized RNase protection assays to detect small RNA fragments corresponding to the TAR sequence.
Briefly, a probe complementary to the entire length of the 5′ portion of the TAR stem loop was designed, which would detect the generation of ˜21 nt RNAs from any position within that sequence. […]

HIV-1 LTR = assay: Luciferase assay of Tat-dependent HIV-1 LTR transcription in TZM-bl cells; type: cell-based; conditions: TZM-bl cells transfected with Tat, 50 nm, 48 hrs
Method: FIGS. 1 and 2 show screening results of CR8 derivatives on Tat-dependent transcription HIV-1 LTR. […] TZM-bl cells were transfected with 1 ug of Tat and treated the next day with DMSO, or the indicated CR8 derivative compounds at 50 nm. 48 hrs-post drug treatment, luciferase activity of the firefly luciferase was measured with the BrightGlo Luciferase Assay and luminescence was read from a 96 well plate on an EG&G Berthold luminometer. Assays were performed in triplicate, average and standard deviations are shown.
TZM-bl cells were transfected with pc-Tat (0.5 μg) using Attractene reagent (Qiagen) according to the manufacturers' instructions. Twenty-four hours later, cells were treated with DMSO or the indicated compound. Forty-eight hours-post drug treatment, luciferase activity of the firefly luciferase was measured with the BrightGlo Luciferase Assay (Promega).
These cells were brought into contact with 18 Formula I compounds.
Briefly, the addition of Tat protein enables activated transcription of HIV-1 promoter driving luciferase in these cells. Treated cells were assayed at 48 hrs after Tat transfection and drug treatment.

HIV-1 LTR-CAT reporter = assay: CAT assay of Tat-mediated transactivation in HCT116 WT and Dicer-/- cells; type: cell-based; conditions: HCT116 WT (Dicer) versus Dicer-/-; 48 hrs; Flavopiridol, CR8#13, F07#13 100 nm, 9AA 1000 nm
Method: Six hours later, the transfected cells were treated with DMSO, Flavopirodol (100 nm), CR8#13 (100 nm), F07#13 (100 nm), and 9AA (1000 nm). Treated cells were incubated in complete DMEM for 48 hrs at 37° C. Cells were harvested and cell extracts were used for CAT analysis. One tenth the amount of HCT116 Dicer−/−extract compared to HCT116 WT was used for CAT analysis. […] The corresponding bar graphs in A and B show values that represent the percentage of conversion of the [14C] chloramphenicol substrate in the CAT assay.
Various cells lines were transfected with the HIV-1 LTRCAT plasmid and pc-Tat to initiate the LTR transcription, and subsequently subjected to various drug treatments. After 48 hrs, cells were lysed and CAT assays were performed as previously described (Guendel et al, 2009; Van Duyne et al, 2008; Easley et al, 2010).
To evaluate the role on microRNA machinery in inhibition of viral transcription activity, HCT116 colon carcinoma cell lines that either contained a WT Dicer (HCT116 WT) or lacked the Dicer protein (HCT116 Dicer-−/−) were first transfected with the HIV-1 LTR-CAT reporter construct. The HIV-1 LTR transcription was activated with pc-Tat and following incubation for 6 hours was treated with DMSO (negative control), Flavopiridol (positive control), CR8#13, F07#13, or 9AA.
Cells were harvested 48 hrs-post treatment and processed for CAT assays (FIGS. 3A and B). […] Based on this observation the inventors hypothesize that the microRNA machinery, Dicer and Drosha, plays an inhibitory role in HIV-1 transcription.

CC(C)c1cnn2c(NCc3ccc(-c4ccccn4)cc3)nc(NC[C@H](O)CO)nc12.O=C(O)/C=C/C(=O)O [BJFP1154]
5′TAR microRNA levels (3′TAR and 5′TAR microRNA): increase in the 5′TAR microRNA levels
levels of TAR and miTAR RNA (RPA) (TAR microRNA): Higher levels of TAR and miTAR RNA
inhibition of HIV-1 LTR transcription (luciferase) (HIV-1 LTR): greatest transcriptional inhibition; also recorded: significant inhibition of HIV-1 transcription
inhibition of viral transcription (CAT) (HIV-1 LTR-CAT reporter): inhibited viral transcription significantly better in cells that contained Dicer
